Measured values taken from patent EP0431972A2, “Macrocyclic lactones having renin inhibiting properties” (MERCK & CO. INC., priority 1989, dated 1991).
Square brackets hold non-standard residues; d marks the D form. Peptide text beside a SMILES is read from it. * marks the point of attachment. Sta = CC(C)C[C@H](N)[C@@H](O)CC(=O)O; Isovaleryl = CC(C)CC(=O)*

Key:
human plasma renin = human plasma renin IC50 determination; type: biochemical; conditions: against human plasma renin, pH 7.4
Procedure: The following method was used for in vitro evaluation of the renin inhibitors of Formuta t: • The human plasma renin IC50 values for inhibitors of Formula I were determined at pH 7.4 following the procedure described in J. Boger, L.S. Payne, D.S. Perlow, N.S. Lohr, M. Poe, E.H. Blaine, E.H. Elm, T.W. Schorn, B.I. Lamont, T.-Y. Lin, M. Kawai, D.H. Rich and D.F. Veber, J. Med. Chem., 28, 1779 (1985).

[1] = test system: conscious sodium-deficient Rhesus monkeys; assay: intravenous evaluation of renin inhibitors in conscious sodium-deficient Rhesus monkeys (blood pressure lowering); type: in vivo; conditions: i.v. bolus injection
Excerpt: The following methods were used for in vivo evaluation of the renin inhibitors of Formua I : Intravenous evaluation of renin inhibitors in conscious sodium-deficient Rhesus monkeys : Rhesus monkeys, male and female, weighing 2.6-4.5 Kg, were surgically prepared with chronic arterial and venous catheters and vascular access ports for direct monitoring of mean arterial pressure (MAPI) and heart rate (HR). The animals were maintained on a low sodium diet (1.2 mmol Nalday) plus fruit for a week, and administered LASIX (furosemide) at 2.5 mg/Kg, intramuscularly the evening prior to the experiment The animals had been trained to sit quietly in the chairs with waterAD LIBIUM for the duration of the experiment. The inhibitors were administered by bolus injection using 0.5% acetic acid-5% dextrose in water as the vehicle (0.4 ml/Kg), and MAP and HRwere measured. Blood samples were withdrawn at different time intervals beginning at the nadir of hypotensive response. PRA was determined as described above. […] A projected ED50 dose for each inhibitorwas calculated using the following formula: ED50 (Test Inhibitor, umoles/Kg) = ED50 (SCRIP) X [IC50 (Test Inhibitor)/IC50 (SCRIP)], where the IC50 values were determined against human plasma renin. […] Percent inhibition of monkey PRA, changes in MAP and HR were calculated and plotted against time. […]

IC50 (human plasma renin): 3.7 nM
Compound: CC(C)CC(=O)N[C@@H](Cc1c[nH]cn1)C(=O)N1CCC[C@H]1C(=O)N[C@@H](Cc1ccccc1)C(=O)N[C@@H](Cc1c[nH]cn1)C(=O)N[C@@H](CC(C)C)[C@@H](O)CC(=O)N[C@@H](CC(C)C)C(=O)N[C@@H](Cc1ccccc1)C(N)=O [SCRIP, Iva-His-Pro-Phe-His-Sta-Leu-Phe-NH2] (Isovaleryl-HPFH[Sta]LF-NH2)
i.v. dose of the standard inhibitor required to lower blood pressure by 50% of the maximal response (ED50) [1]: 0.039 µmol/kg
